The record followed here is patent US7288653B2, “Inhibitors of proton-gated cation channels and their use in the treatment of ischaemic disorders” (PainCeptor Pharma Corporation, priority 1999, dated 2007).

For one data set, the target named is T1, naturally occurring proton-gated cation channel in a HEK293 cell (Homo sapiens, UniProt P78348).
T1 construct: a naturally occurring proton-gated cation channel in a HEK293 cell; endogenous in cells; host or cells: HEK293
T1 sequence (P78348 1-528): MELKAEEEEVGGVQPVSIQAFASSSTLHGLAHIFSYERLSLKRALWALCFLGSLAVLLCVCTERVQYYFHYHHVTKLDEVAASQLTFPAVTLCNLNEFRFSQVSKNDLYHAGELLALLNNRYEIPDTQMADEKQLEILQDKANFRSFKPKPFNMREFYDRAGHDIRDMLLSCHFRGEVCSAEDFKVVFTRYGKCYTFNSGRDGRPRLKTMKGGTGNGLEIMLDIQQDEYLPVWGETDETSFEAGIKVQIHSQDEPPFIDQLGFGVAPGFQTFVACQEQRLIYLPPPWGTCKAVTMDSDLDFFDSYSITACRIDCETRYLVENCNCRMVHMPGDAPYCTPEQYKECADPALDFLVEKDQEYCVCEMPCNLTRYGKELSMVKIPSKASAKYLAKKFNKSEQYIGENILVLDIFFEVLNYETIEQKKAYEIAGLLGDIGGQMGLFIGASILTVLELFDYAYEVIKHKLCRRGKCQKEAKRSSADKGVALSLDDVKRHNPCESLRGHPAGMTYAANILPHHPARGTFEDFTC
Put plainly: Patch clamp of whole cell currents elicited by a drop in extracellular pH in HEK293 cells. In kind it is cell-based. The conditions noted are these: extracellular pH drop from 7.4 to 6.5, group IC50 below 100 nM, read-out: IC50, inhibition of the proton activated response. The method, then:
In this example the current flux induced by protons over the membrane of a naturally occurring proton-gated cation channel in a HEK293 cell was determined using patch clamp techniques.
Using this technique, the effects of the compounds for use according to the invention was investigated on whole cell currents elicited by a drop in extracellular pH from 7.4 to 6.5.
A word on the IC50: it is the concentration that inhibits the measured activity by half. Take `CN1CCc2c(-c3ccc(Cl)cc3)cc3c(c2C1)NC(=O)C3=NO` [5-(4-chlorophenyl)-8-methyl-6-7-8-9-tetrahydro-1-H-pyrrolo-[3,2-h]-isoquinoline-2,3-dione-3-oxim]: the IC50 was < 0.1 µM.
Same read-out and setting: as for `CN1Cc2c(-c3cccc4ccccc34)cc3c(c2C1)NC(=O)C3=NO` [7-methyl-5-(1-naphthyl)-1-6-7-8-tetrahydrobenzo-[2,1-b:3,4-c]-dipyrrole-2,3-dione-3-oxime], the figure is < 0.1 µM; as for `CN1Cc2c(-c3ccccc3)cc3c(c2C1)NC(=O)C3=NO` [7-methyl-5-phenyl-1-6-7-8-tetrahydrobenzo-[2,1-b:3,4-c]-dipyrrole-2,3-dione-3-oxime], < 0.1 µM; as for `CCN1CCc2c(-c3ccccc3)cc3c(c2C1)NC(=O)/C3=N/O` [8-ethyl-5-phenyl-6-7-8-9-tetrahydro-1H-pyrrolo-[3,2-h]-isoquinoline-2,3-dione-3-oxim], < 0.1 µM.
Regarding `CN1CCc2c(-c3ccc(F)cc3)cc3c(c2C1)NC(=O)C3=NO` [8-methyl-5-(4-fluorophenyl)-6,7,8,9-tetrahydro-1H-pyrrolo-[3,2-h]-isoquinoline-2,3-dione-3-oxim], the IC50 is < 0.1 µM.
Consider `CC(=O)ON=C1C(=O)Nc2c1cc(-c1ccccc1)c1c2CN(C)CC1` [8-methyl-5-phenyl-6,7,8,9-tetrahydro-1H-pyrrolo-[3,2-h]-isoquinoline-2,3-dione-3-acetyloxim], for which the IC50 is < 0.1 µM.
The same measure, in the same setting: as for `CN1CCc2c(-c3ccccc3)cc3c(c2C1)NC(=O)C3=NO` [8-methyl-5-phenyl-6-7-8-9-tetrahydro-1H-pyrrolo-[3,2-h]-isoquinoline-2,3-dione-3-oxim], the figure is < 0.1 µM.

The same data set, now with this note: extracellular pH drop from 7.4 to 6.5, group IC50 below 1 μM (of from 100 nM to 1 μM), read-out: IC50, inhibition of the proton activated response.
For `CN1CCc2c(-c3ccc4ccccc4c3)cc3c(c2C1)NC(=O)C3=NO` [5-(2-naphthyl)-8-methyl-6-7-8-9-tetrahydro-1-H-pyrrolo-[3.2-h]-isoquinoline-2,3-dione-3-oxim], the IC50 is < 1 µM.
On the same count and under the same terms, as for `O=C1Nc2c(cc(-c3ccccc3)c3c2CNCC3)C1=NO` [5-phenyl-6-7-8-9-tetrahydro-1H-pyrrolo-[3,2-h]-isoquinoline-2,3-dione-3-oxim], the figure is < 1 µM; as for `CCN1Cc2c(-c3ccccc3)cc3c(c2C1)NC(=O)C3=NO` [7-ethyl-5-phenyl-1-6-7-8-tetrahydrobenzo-[2,1-b:3,4-c]-dipyrrole-2,3-dione-3-oxime], < 1 µM.
Still for that read-out and setting: as for `CN1Cc2c(-c3ccccc3)cc3c(c2C1)NC(=O)C3=NO` [7-methyl-5-phenyl-1-6-7-8-tetrahydrobenzo-[2,1-b:3,4-c]-dipyrrole-2,3-dione-3-oxime], the figure is < 1 µM; as for `O=C1Nc2c(cc(-c3ccccc3)c3c2CN(Cc2ccccc2)CC3)C1=NO` [8-benzyl-5-phenyl-6-7-8-9-tetrahydro-1H-pyrrolo-[3,2-h]-isoquinoline-2,3-dione-3-oxim], < 1 µM; as for `O=C1Nc2c(cc(-c3ccccc3)c3c2CN(CC2CC2)CC3)C1=NO` [8-cyclopropylmethyl-5-phenyl-6,7,8,9-tetrahydro-1H-pyrrolo-[3,2-h]-isoquinoline-2,3-dione-3-oxime], < 1 µM.
Regarding `CCN1CCc2c(-c3ccccc3)cc3c(c2C1)N(C)C(=O)C3=NO` [8-ethyl-5-phenyl-6-7-8-9-tetrahydro-1-methyl-pyrrolo-[3,2-h]-isoquinoline-2,3-dione-3-oxim], the IC50 was < 1 µM.
On the same count and under the same terms, with `COc1ccccc1-c1cc2c(c3c1CCN(C)C3)NC(=O)/C2=N\O` [8-methyl-5-(2-methoxyphenyl)-6-7-8-9-tetrahydro-1-H-pyrrolo-[3.2-h]-isoquinoline-2,3-dione-3-oxim] the figure was < 1 µM.
With `COc1cccc(-c2cc3c(c4c2CCN(C)C4)NC(=O)/C3=N\O)c1` [8-methyl-5-(3-methoxyphenyl)-6-7-8-9-tetrahydro-1-H-pyrrolo-[3.2-h]-isoquinoline-2,3-dione-3-oxim], the IC50 was < 1 µM.
`CN1CCc2c(-c3ccc(S(=O)(=O)N(C)C)cc3)cc3c(c2C1)NC(=O)C3=NO` [8-methyl-5-(4-(N,N-dimethylsulfamoyl)-phenyl)-6,7,8,9-tetrahydro-1H-pyrrolo-[3,2-h]-isoquinoline-2,3-dione-3-oxime]: the IC50 is < 1 µM.
Still for that read-out and setting: with `CN1CCc2c(-c3ccccc3)cc3c(c2C1)NC(=O)C3=NOC(=O)C(C)(C)C` [8-methyl-5-phenyl-6-7-8-9-tetrahydro-1-H-pyrrolo-[3.2-h]-isoquinoline-2,3-dione-3-O-2,2-dimethylpropanoyl-oxim] the figure was < 1 µM.
Take `CON=C1C(=O)Nc2c1cc(-c1ccccc1)c1c2CN(C)CC1` [8-methyl-5-phenyl-6-7-8-9-tetrahydro-1H-pyrrolo-[3,2-h]-isoquinoline-2,3-dione-3-methyloxim]: the IC50 is < 1 µM.

The data set is the same for the next values; noted with them: extracellular pH drop from 7.4 to 6.5, group IC50 below 10 μM (of from 1 μM to 10 μM), read-out: IC50, inhibition of the proton activated response.
For `O=C1Nc2c(cc(-c3ccc(Cl)cc3)c3c2CCCC3)C1=NO` [5-(4-chlorophenyl)-6-7-8-9-tetrahydro-1-H-pyrrolo-[3.2-h]-naphthalene-2,3-dione-3-oxim], the IC50 was in the range of 1 to 10 µM.
The same measure, in the same setting: with `O=C1Nc2c(cc(-c3ccccc3)c3c2CCCC3)/C1=N/O` [5-phenyl-6-7-8-9-tetrahydro-1-H-pyrrolo-[3.2-h]-naphthalene-2,3-dione-3-oxim] the figure was 1 to 10 µM.
`C#CCN1CCc2c(-c3ccccc3)cc3c(c2C1)NC(=O)C3=NO` [8-(2-propynyl)-5-phenyl-6,7,8,9-tetrahydro-1H-pyrrolo-[3,2-h]-isoquinoline-2,3-dione-3-oxime]: the IC50 was 1 to 10 µM.
On the same count and under the same terms, with `CCN1CCc2c(-c3ccccc3)cc3c(c2C1)N(C)C(=O)C3=NOC` [8-ethyl-5-phenyl-6-7-8-9-tetrahydro-1-methyl-pyrrolo-[3,2-h]-isoquinoline-2,3-dione-3-O-methyloxim] the figure was 1 to 10 µM.
For the molecule `COC(=O)CN1CCc2c(-c3ccccc3)cc3c(c2C1)NC(=O)C3=NO` [8-methoxycarbonylmethyl-5-phenyl-6,7,8,9-tetrahydro-1H-pyrrolo-[3,2-h]-isoquinoline-2,3-dione-3-oxime], the IC50 is 1 to 10 µM.
Same read-out and setting: with `COc1ccc(-c2cc3c(c4c2CCN(C)C4)NC(=O)C3=NO)cc1` [8-methyl-5-(4-methoxyphenyl)-6-7-8-9-tetrahydro-1-H-pyrrolo-[3.2-h]-isoquinoline-2,3-dione-3-oxim] the figure was 1 to 10 µM; with `CN1CCc2c(-c3ccc([N+](=O)[O-])cc3)cc3c(c2C1)NC(=O)/C3=N\O` [8-methyl-5-(4-nitrophenyl)-6,7,8,9-tetrahydro-1H-pyrrolo-[3,2-h]-isoquinoline-2,3-dione-3-oxim], 1 to 10 µM.

System in another data set: not given
Test: not given
Settings: not given
For orientation: melting point means the temperature of the solid-liquid transition. Turning to `C#CCN1CCc2c(-c3ccccc3)cc3c(c2C1)NC(=O)C3=NO` [8-(2-propynyl)-5-phenyl-6,7,8,9-tetrahydro-1H-pyrrolo-[3,2-h]-isoquinoline-2,3-dione-3-oxime], the melting point is 170 °C (dec.).
For the molecule `O=C1Nc2c(cc(-c3ccccc3)c3c2CN(Cc2ccccc2)CC3)C1=NO` [8-benzyl-5-phenyl-6-7-8-9-tetrahydro-1H-pyrrolo-[3,2-h]-isoquinoline-2,3-dione-3-oxim], the melting point is 160 °C (dec.).
The same measure, in the same setting: as for `O=C1Nc2c(cc(-c3ccccc3)c3c2CN(CC2CC2)CC3)C1=NO` [8-cyclopropylmethyl-5-phenyl-6,7,8,9-tetrahydro-1H-pyrrolo-[3,2-h]-isoquinoline-2,3-dione-3-oxime], the figure is 170 °C (dec.).
